Laboratory results taken from the supplement of paper PMC10307832.

Legend:
Assay in all cases: relative viability (nuclei count vs DMSO), 5 days (fraction); higher = more cells survive
Idelalisib + OSI-027 = compound: CC[C@H](Nc1ncnc2[nH]cnc12)c1nc2cccc(F)c2c(=O)n1-c1ccccc1 [Idelalisib] + COc1cccc2cc(-c3nc([C@H]4CC[C@H](C(=O)O)CC4)n4ncnc(N)c34)[nH]c12 [OSI-027] (partner 0.5 µM)
Outline: (§1)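 Values are medians from duplicate plates. Each reflects relative viability, defined as the nuclei count of treated wells over that of vehicle wells. Lung cancer cell lines in 1536-well plates were pin-tool dosed one day after seeding with one drug alone or with a fixed anchor-drug dose plus five library-drug doses (not always all listed) in √10 steps, then fixed, stained and imaged at 4× after 5 days.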

Idelalisib + Olaparib = compound: CC[C@H](Nc1ncnc2[nH]cnc12)c1nc2cccc(F)c2c(=O)n1-c1ccccc1 [Idelalisib] + O=C(c1cc(Cc2n[nH]c(=O)c3ccccc23)ccc1F)N1CCN(C(=O)C2CC2)CC1 [Olaparib] (partner 8 µM)
Outline: as §1

Pemetrexed + Alpelisib = compound: Nc1nc2[nH]cc(CCc3ccc(C(=O)N[C@@H](CCC(=O)O)C(=O)O)cc3)c2c(=O)[nH]1 [Pemetrexed] + Cc1nc(NC(=O)N2CCC[C@H]2C(N)=O)sc1-c1ccnc(C(C)(C)C(F)(F)F)c1 [Alpelisib] (partner 2 µM)
Outline: as §1

Pemetrexed + Olaparib = compound: Nc1nc2[nH]cc(CCc3ccc(C(=O)N[C@@H](CCC(=O)O)C(=O)O)cc3)c2c(=O)[nH]1 [Pemetrexed] + O=C(c1cc(Cc2n[nH]c(=O)c3ccccc23)ccc1F)N1CCN(C(=O)C2CC2)CC1 [Olaparib] (partner 8 µM)
Outline: as §1

Cell Line	relative viability (Idelalisib + OSI-027; first compound 0.04 µM)	relative viability (Idelalisib + OSI-027; first compound 0.1265 µM)	relative viability (Idelalisib + OSI-027; first compound 0.4 µM)	relative viability (Idelalisib + OSI-027; first compound 1.265 µM)	relative viability (Idelalisib + OSI-027; first compound 4 µM)	relative viability (Idelalisib + Olaparib; first compound 0.04 µM)	relative viability (Idelalisib + Olaparib; first compound 0.1265 µM)	relative viability (Idelalisib + Olaparib; first compound 0.4 µM)	relative viability (Idelalisib + Olaparib; first compound 1.265 µM)	relative viability (Idelalisib + Olaparib; first compound 4 µM)	relative viability (Pemetrexed + Alpelisib; first compound 0.002 µM)	relative viability (Pemetrexed + Alpelisib; first compound 0.006325 µM)	relative viability (Pemetrexed + Alpelisib; first compound 0.02 µM)	relative viability (Pemetrexed + Alpelisib; first compound 0.06325 µM)	relative viability (Pemetrexed + Alpelisib; first compound 0.2 µM)	relative viability (Pemetrexed + Olaparib; first compound 0.002 µM)	relative viability (Pemetrexed + Olaparib; first compound 0.006325 µM)	relative viability (Pemetrexed + Olaparib; first compound 0.02 µM)	relative viability (Pemetrexed + Olaparib; first compound 0.06325 µM)	relative viability (Pemetrexed + Olaparib; first compound 0.2 µM)
LCLC-103H	0.545	0.497	0.368	0.459	0.424	0.728	0.791	0.721	0.757	0.705	0.971	0.992	1.04	1.01	0.959	0.732	0.707	0.791	0.78	0.679
LK-2	0.219	0.223		0.198	0.183	0.874	0.631		0.983	0.609		1.07	1.12	0.962	0.773	0.761	0.817	0.745	0.519	0.622
NCI-H522	0.823	0.711	0.729	0.771	0.698	0.684	0.526	0.606	0.678	0.72						0.484	0.549	0.572	0.511	0.703
NCI-H1299						1.01	0.982	0.941	1.02	1.06	1.07	1.03	1.01	1.01	1.06	0.967	0.913	0.949	0.956	0.983
NCI-H1563	0.766	0.757	0.703	0.767	0.701						0.904	0.922	0.976	0.875	0.954					
NCI-H1623	0.409	0.463	0.45	0.402	0.386															
NCI-H1648	0.272	0.368	0.261	0.285	0.26		1.16	0.712	1.11	0.657						0.953	0.926	0.768	0.732	0.766
NCI-H1650	0.641	0.602	0.478	0.578	0.536	0.793	0.865	0.768	0.789	0.654						0.676	0.93	0.887	0.758	0.345
NCI-H1703						0.459	0.436	0.365	0.388	0.237	0.319	0.38	0.333	0.338	0.379	0.485	0.379	0.671	0.381	0.385
NCI-H2342	0.587	0.613	0.582	0.641	0.618	0.442	0.481	0.457	0.421	0.407						0.409	0.407	0.467	0.452	0.424
SW 900	0.553	0.642	0.376	0.744	0.373	0.904	0.842	0.729	0.93	0.665						0.871	0.797	1.07	0.621	0.494
